What was measured:
[1] = test system: H1792 cells; experiment: In-gel fluorescence analysis of probe-labeled proteins after photocrosslinking in live H1792 cells; format: binding, human; settings: compared to vehicle
Experimental: (§1) Cells were grown in 10 cm dishes to ˜90% confluence at the time of treatment. Cells were carefully washed twice with Dulbecco's phosphate buffered saline (DPBS) and replenished with fresh serum-free RPMI 1640 media containing indicated probes ([…]), competitors, or DMSO. Without competitors, cells were incubated with probes for 30 min at 37° C. and then exposed to 365 nm UV light for 15 min on ice. With competitors, cells were pre-treated with competitors for 30 min and photoactivated for 15 min. Probes were then added to cells for an additional 30 min incubation. For no UV experiments, cells were incubated for 15 min under ambient light. Cells were harvested in cold DPBS and pellets were washed with cold DPBS (2 X). Pellets were either directly processed or kept frozen at −80° C. until use. Cells pellets were lysed for 30 min in cold DPBS (100-300 uL) per culture dish supplemented with 1% NP-40, followed by sonication (5 pulses, 4 s on, 20 s off, output setting=4). Lysates were centrifuged at 20,817×g for 20 min, and supernatant (soluble proteome) was used for further processing. Protein concentrations were determined using Bradford assays.
To 1 mg of protein, were added a mixture of TBTA (Tris((1-benzyl-4-triazolyl)methyl)amine, 60 μL/sample, 1.7 mM in 1:4 DMSO: t-BuOH stock), CuSO4 (20 μL/sample, 50 mM in H2O), TCEP (tris(2-carboxyethyl) phosphine, 20 μL/sample, 50 mM in DPBS, made fresh) and Biotin-Azide conjugate (10 μL/sample, 10 mM in DMSO stock). Each sample was rotated at room temperature for 2 h. To each resultant a cold 4:1 mixture (600 μL) of methanol (MeOH)/chloroform (CHCl3) was added followed by cold PBS (100 μL) on ice. The resulting cloudy mixture was centrifuged (5,000×g, 10 min, 4° C.) to fractionate the protein interface from the organic and aqueous solvent layers. A MeOH:CHCl3 (1:1, 1 mL, 2×) mixture was used to wash protein discs thoroughly. Protein discs were sonicated in cold 4:1 MeOH:CHCl3 (2 mL) mixture. The remaining precipitate was pelleted by centrifugation (5,000×g, 10 min, 4° C.). […] Gels were subjected to fluorescence imaging or Western Blotting.

[2] = test system: H1792 LUAD cells; experiment: Chemical proteomics target profiling in live H1792 cells (label-free LC-MS/MS, comparison with control probe 22 and panel-wide cross-comparison); format: binding, human
Experimental: as §1
Protein pellets were transferred to 5 mL microcentrifuge tubes and then resuspended in a freshly-prepared solution of proteomics-grade urea (320 μL, 6 M Urea in DPBS) containing 80 μL of 10% SDS and dissolved by sonication. To each solution, 4 mL DPBS was added (final conc: 0.2%, total volume) and incubated with pre-equilibrated NeutrAvidin agarose resin (100 μL 1:1 slurry, Pierce, Cat. 29201) for 2 hrs at ambient temperature on a rotator. The NeutrAvidin beads were collected by centrifugation (1,400×g, 2 min) and sequentially washed with 0.2% SDS in DPBS (2×2 mL), detergent-free DPBS (2×2 mL), and 50 mM ammonium bicarbonate (AMBIC, 2×2 mL). Beads were resuspended with 200 μL 50 mM AMBIC and incubated with TCEP 50 μL (100 mM in 50 mM AMBIC) for 30 min at 37° C. Iodoacetamide (50 μL of 200 mM in 50 mM AMBIC) was added and incubated for 30 min at ambient temperature. The beads were again washed with 2×1 mL 50 mM AMBIC and resuspended in 100 μL of fresh 50 mM AMBIC and treated with 2 μg of sequencing grade modified trypsin (Promega, #V5111) at 37° C. overnight. These samples were acidified with formic acid (final conc: 5%) and centrifuged (1,000×g, 2 min). The supernatant was collected and desalted through ZIPTIPs, and the desalted peptide mixture were dried in vacuum and reconstituted with HPLC buffer (2% acetonitrile, 0.1% formic acid) for LC-MS/MS analysis. Tryptic peptides of avidin were excluded from MS2 analysis to maximize detection of the protein targets (Table S7). Samples were analyzed using LC-MS/MS after being spiked with 50 fmol/uL PRTC standards (88320, Pierce Retention Time Calibration Mixture, Thermo Fisher, MA). A nanoflow ultra high performance liquid chromatograph and nanoelectrospray orbitrap mass spectrometer (RSLCnano and Q Exactive plus, Thermo) were used for LC-MS/MS. The sample was loaded onto a pre-column (C18 PepMap100, 2 cm length×100 μm ID packed with C18 reversed-phase resin, 5 μm particle size, 100 Å pore size) and washed for 8 minutes with aqueous 2% acetonitrile and 0.1% formic acid. Trapped peptides were eluted onto the analytical column, (C18 PepMap100, 25 cm length×75 μm ID, 2 μm particle size, 100 Å pore size, Thermo). A 120-minute gradient was programmed as: 95% solvent A (aqueous 2% acetonitrile+0.1% formic acid) for 8 minutes, solvent B (aqueous 90% acetonitrile+0.1% formic acid) from 5% to 38.5% in 90 minutes, then solvent B from 50% to 90% B in 7 minutes and held at 90% for 5 minutes, followed by solvent B from 90% to 5% in 1 minute and re-equilibration for 10 minutes using a flow rate of 300 nl/min. Spray voltage was 1900 V. Capillary temperature was 275° C. S lens RF level was set at 40. Top 16 tandem mass spectra were collected in a data-dependent manner. The resolution for MS and MS/MS were set at 70,000 and 17,500 respectively. […]

With C#CCCC1(CCC(=O)N2CCC(COc3nc4ccccc4nc3C)CC2)N=N1 [Probe 17, 3-(3-(but-3-yn-1-yl)-3H-diazirin-3-yl)-1-(4-(((3-methylquinoxalin-2-yl)oxy)methyl)piperidin-1-yl)propan-1-one] the “proteome labeling by probe (in-gel fluorescence)” value [1] was “efficiently labeled a wide range of proteins”, the “prominent target protein predominantly enriched by the probe” value ([2]; compared to control probe and probe panel) was “GSTZ1” and the “selectivity of probe for GSTZ1” value ([2]; many other enriched putative targets vs. negative control probe alone) was “should not be considered a selective probe for GSTZ1”.

— US20250313544A1, “INHIBITORS OF GLUTATHIONE S-TRANSFERASE ZETA 1 (GSTZ1) AND METHODS OF USE” (H. LEE MOFFITT CANCER CENTER AND RESEARCH INSTITUTE, INC., priority 2022, published 2025)
